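Cells were grown in 96-well plates and exposed to each compound for 48 hours at five concentrations; endpoints were interpolated linearly between bracketing concentrations, or set to the highest concentration if not reached. GI50: concentration for 50% inhibition of growth. TGI marks complete inhibition of growth.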
Tests used:
Experiment in all cases: DTP human tumour cell line panel, 48 h
SN12C renal = tested on: SN12C renal
OVCAR-3 ovarian = tested on: OVCAR-3 ovarian
RXF 393 renal = tested on: RXF 393 renal
K-562 leukemia = tested on: K-562 leukemia
NCI-H522 lung = tested on: NCI-H522 lung
UACC-62 melanoma = tested on: UACC-62 melanoma
U251 CNS = tested on: U251 CNS
HCT-116 colon = tested on: HCT-116 colon
SK-OV-3 ovarian = tested on: SK-OV-3 ovarian
MCF7 breast = tested on: MCF7 breast

Row | SMILES | TGI (SN12C renal) | TGI (OVCAR-3 ovarian) | TGI (RXF 393 renal) | TGI (K-562 leukemia) | TGI (NCI-H522 lung) | TGI (UACC-62 melanoma) | TGI (U251 CNS) | TGI (HCT-116 colon) | TGI (SK-OV-3 ovarian) | GI50 (SN12C renal) | GI50 (OVCAR-3 ovarian) | GI50 (RXF 393 renal) | GI50 (K-562 leukemia) | GI50 (NCI-H522 lung) | GI50 (UACC-62 melanoma) | GI50 (MCF7 breast) | TGI (MCF7 breast) | GI50 (U251 CNS) | GI50 (SK-OV-3 ovarian) | GI50 (HCT-116 colon)
1 | CCOC(=O)/C(=C\c1ccc[nH]1)C(=O)c1ccccc1 | > 100 µM | > 100 µM | > 100 µM | > 100 µM | > 100 µM | > 100 µM | > 100 µM | > 100 µM | > 100 µM | – | – | – | – | – | – | – | – | – | – | –
2 | O=c1c2cccnc2ncn1CCN1CCCC1 | > 100 µM | > 100 µM | > 100 µM | > 100 µM | > 100 µM | > 100 µM | > 100 µM | > 100 µM | > 100 µM | – | – | – | – | – | – | – | – | – | – | –
3 | CC/C=C/c1cc2cc[nH]c2c2c1C(C)C[C@@H]2C (stereo partly drawn) | 35 µM | 40.5 µM | 41.3 µM | 65.9 µM | 40.4 µM | 41.8 µM | 51.2 µM | 29.7 µM | > 100 µM | – | – | – | – | – | – | – | – | – | – | –
4 | CCNCCCn1c2c(c3ccc([N+](=O)[O-])cc3c1=O)C(=O)c1cc(OC)cnc1-2 | 1.08 µM | 0.302 µM | 0.464 µM | 1.65 µM | 0.898 µM | 0.168 µM | 0.186 µM | – | 1.62 µM | 53.1 nM | 61.6 nM | 136 nM | 52.2 nM | 36.1 nM | 26.7 nM | 18.6 nM | 1.37 µM | 32.9 nM | 0.0589 µM | –
5 | CSc1ncnc2c1CCN2 | > 100 µM | – | – | – | – | > 100 µM | – | > 100 µM | > 100 µM | – | > 100000 nM | – | – | > 100000 nM | > 100000 nM | – | – | – | > 100 µM | > 100000 nM
6 | O=C(Nc1cccc(-n2cc(-c3ccncc3)c(-c3ccc(O)c(Cl)c3)n2)c1)Nc1cccc(C(F)(F)F)c1 | > 100 µM | – | 4.05 µM | > 100 µM | 4.31 µM | 5.5 µM | 4.8 µM | 5.87 µM | 23.1 µM | 2860 nM | – | 1190 nM | 2690 nM | 1550 nM | 2280 nM | 2150 nM | 6.59 µM | 1400 nM | 3.59 µM | 2050 nM
7 | C=C1C(=O)OC2CC(C)C3C=CC(=O)C3CC12 (stereo not drawn) | 5.19 µM | 13.6 µM | 3.03 µM | 12.9 µM | 1.95 µM | 3.74 µM | 20.6 µM | 2.7 µM | 33.3 µM | – | – | – | – | – | – | – | – | – | – | –
8 | COc1cc2c(c(OC)c1OC)-c1ccc(OC)c(=O)cc1[C@@H](N(C)C=O)CC2 | > 100 µM | 0.047 µM | – | > 100 µM | 0.0438 µM | > 100 µM | > 4.68 µM | 6.83 µM | – | – | – | – | – | – | – | – | – | – | – | –
9 | COc1cc(/C=C(\OC(C)=O)c2ccc3c(c2)OCO3)cc(OC)c1OC | 88.1 µM | 49.2 µM | > 100 µM | > 100 µM | 50.2 µM | 34.2 µM | 47.4 µM | 38.9 µM | 66.8 µM | – | – | – | – | – | – | – | – | – | – | –
10 | CCC(C(=O)c1ccccc1)C(CCCC(=O)Nc1c(C)cccc1C)N=O (stereo not drawn) | > 100 µM | > 100 µM | – | > 100 µM | > 100 µM | > 100 µM | > 100 µM | > 100 µM | > 100 µM | – | – | – | – | – | – | – | – | – | – | –
11 | Cc1ccc2c(c1)CNc1ccc(C)cc1CN2 | > 100 µM | > 100 µM | – | > 100 µM | > 100 µM | > 100 µM | > 100 µM | > 100 µM | > 100 µM | – | – | – | – | – | – | – | – | – | – | –
12 | O=C(NCc1ccncc1)C1COc2cc(-c3cc(=O)c4ccccc4o3)ccc2O1 (stereo not drawn) | > 100 µM | > 100 µM | > 100 µM | > 100 µM | > 100 µM | > 100 µM | > 100 µM | > 100 µM | > 100 µM | – | – | – | – | – | – | – | – | – | – | –
13 | Fc1ccc2[nH]cc(SSc3c[nH]c4ccc(F)cc34)c2c1 | – | 18.3 µM | 17 µM | > 100 µM | 7.67 µM | 13.8 µM | 28 µM | > 100 µM | 22.8 µM | – | 4520 nM | 659 nM | 3890 nM | 2480 nM | 2830 nM | 3870 nM | 20 µM | 3820 nM | 6.13 µM | 3980 nM
14 | COc1ccc2c(c1)/C(=C/c1cc(OC)c(OC)c(OC)c1)C(=O)N2C | > 44.5 µM | 5.95 µM | – | > 46.5 µM | 6.39 µM | > 24 µM | 4.83 µM | 13.3 µM | 12.5 µM | 3440 nM | 2030 nM | – | 1120 nM | 2240 nM | 2370 nM | 1830 nM | > 25.8 µM | 1940 nM | 3.2 µM | 2560 nM
15 | CC(C)C(=O)/C=C/c1ccc(Cl)c(Cl)c1 | 29.2 µM | 27.6 µM | 33.5 µM | 72.2 µM | 35.1 µM | 34.9 µM | 30.7 µM | 15.2 µM | 70.3 µM | – | – | – | – | – | – | – | – | – | – | –
16 | Cc1ccc(Oc2ccc([N+](=O)[O-])cc2[N+](=O)[O-])c(C)c1 | > 100 µM | > 100 µM | 89.7 µM | > 100 µM | – | > 100 µM | > 100 µM | > 100 µM | > 100 µM | – | – | – | – | – | – | – | – | – | – | –
17 | C1COCCOCCOCCOCCO1.CC(=O)[CH-]C(C)=O.CC(=O)[CH-]C(C)=O.CC(=O)[CH-]C(C)=O.[V] | 62.3 µM | 32.3 µM | 3.26 µM | 71.4 µM | 39 µM | 17.4 µM | 52.8 µM | 27.3 µM | 33 µM | 21300 nM | 13700 nM | 1630 nM | 29100 nM | 16900 nM | 4250 nM | – | – | 20600 nM | 17.6 µM | 13400 nM
18 | c1ccc(COC2(OCc3ccccc3)CC3OC2C2NN=NC32)cc1 (stereo not drawn) | > 10 µM | 33.8 µM | > 100 µM | 38.6 µM | – | 46.6 µM | 32.6 µM | – | > 100 µM | – | – | – | – | – | – | – | – | – | – | –
19 | Cc1ccc(Sc2sc(-c3ccccc3)nc2[P+](c2ccccc2)(c2ccccc2)c2ccccc2)cc1 | 1.1 µM | 1.23 µM | 1.38 µM | 1.54 µM | 1.25 µM | 1.25 µM | 1.4 µM | 1.11 µM | 0.863 µM | 323 nM | 346 nM | 331 nM | 257 nM | 306 nM | 317 nM | – | – | 214 nM | 0.282 µM | 246 nM

From PubChem BioAssay (NCI)
